The source of these data is patent US20120309728A1, “NEW STEROID INHIBITORS OF PGP FOR USE FOR INHIBITING MULTIDRUG RESISTANCE” (priority 2009, published 2012).

For assay [1], the system named is K562/R7 cells. The assay is described as follows: Cytotoxicity assay using MTT reagent, with doxorubicin plus steroid modulator. The assay is classed as cell-based, human. To be noted: for Surviving cells R7 cells (% untreated cells): doxorubicin 10^−6M + steroid modulator 10^−6M, 72 h; for activity compared with cyclosporine A (in words): comment on Table 2 bis, R7 cells. The protocol:
Doxorubicin at 10^−6 M was then added to each well. After incubation for 72 h, 20 μL of MTT reagent (5 mg/mL in PBS buffer) were added to each well and the plate was further incubated for 4 h at 37° C., allowing viable cells to change the yellow MTT into dark-blue formazan crystals. Supernatants were carefully discarded and 100 μL of isopropanol containing 10% HCL 1M were added to dissolve the formazan crystals. Absorbance in each well was determined at 570 nm using a microplate reader (MultisKan EX, Thermo Electron). […] At least three different experiments were performed. Results were expressed as the percentage of surviving cells in each well compared to untreated cells.
For orientation: Tetrazolium assays rely on reduction of a dye to a coloured formazan, in cell work by metabolically active cells.

The test system of assay [2] is R7 cells. The assay is described as follows: Intracellular accumulation of daunorubicin measured by flow cytometry. The assay is classed as cell-based, human. The conditions noted are these: for Daunorubicin accumulation: daunorubicin 10 μM, compound 10 μM, 1 h at 37° C. The protocol: The accumulation of daunorubicin in the presence of steroid modulators according to the invention, i.e. compounds having formula (I), was measured by flow cytometry using a reported procedure (G. Comte et al, J. Med. Chem., 44: 763-768, 2001). K562 or R7 cells ([…]) were incubated for 1 h at 37° C. with 1 mL RPMI 1640 medium containing daunorubicin at 10 μM, in the presence or absence of compounds of the invention (10 μM). The cells were then washed twice with ice-cold PBS and kept on ice until analysis by flow cytometry on a FACS-II (Becton-Dickinson Corp., Mountain View, Calif.). Assays were performed in duplicate, in at least three separate experiments.
In general terms: Flow cytometry measures light scatter and fluorescence of single cells or particles in a stream.

For Cyclosporine A [reference compound], the “Surviving cells R7 cells (% untreated cells)” value in assay [1] came out at 1.6 ± 0.5 % untreated cells.

Turning to `COC(=O)CC[C@@H](C)[C@H]1CC[C@H]2[C@@H]3[C@H](OC(=O)c4ccccc4)CC4CC(=O)CC[C@]4(C)[C@H]3C[C@H](O[C@@H]3CCCCO3)[C@]12C` (single isomer, unassigned) [Compound 60], in assay [2], the Daunorubicin accumulation is 79.8 ± 6.1 % of the accumulation measured in the presence of cyclosporine A. Further, the “Surviving cells R7 cells (% untreated cells)” value in assay [1] is listed as 2.2 ± 0.3 % untreated cells. Take `CC(=O)[C@@]1(OC2CCCCO2)CCC2C3CC[C@@H]4CC(=O)CC[C@]4(C)C3[C@H](OC3CCCCO3)C[C@@]21C` (stereo partly drawn) [Compound 52, 11α,17α-Bis-O-[2′(R),2′(R)]tetrahydropyranyloxy(5β)pregnane-3,20-dione]: in assay [2], the “accumulation of daunorubicin compared in words with cyclosporine A or progesterone” value is given as “equivalent to that observed with cyclosporine A” and the Daunorubicin accumulation was 102.01 ± 2.0 % of the accumulation measured in the presence of cyclosporine A. `CC(=O)[C@H]1CC[C@H]2[C@@H]3CCC4=CC(=O)CC[C@]4(C)[C@H]3CC[C@]12C` [progesterone, reference compound]: in assay [2], the Daunorubicin accumulation is 36.27 ± 4.9 % of the accumulation measured in the presence of cyclosporine A. With `CC(=O)C1CCC2C3C[C@@H](OC(=O)c4ccccc4)[C@@H]4CC(=O)CCC4(C)C3[C@H](OC3CCCCO3)CC12C` (mixture of isomers) [Compound 217, 6β-Benzoyloxy-11α-O-[2′(R and S)]tetrahydropyranyloxy(5β)pregnan-3,20-dione], the “Surviving cells R7 cells (% untreated cells)” value in assay [1] worked out at 5.5 ± 0.4 % untreated cells.

Take `CC(=O)[C@H]1CC[C@H]2[C@H]3[C@H]([C@H](O)C[C@]12C)[C@@]1(C)CCC(=O)C[C@H]1C[C@H]3OC1CCCCO1` (stereo partly drawn) [Compound 204, 7α-O-[2′(R+S)]Tetrahydropyranyloxy-11α-hydroxy(5β)pregnane-3,20-dione]: in assay [2], the Daunorubicin accumulation is given as 87.4 ± 3.5 % of the accumulation measured in the presence of cyclosporine A. Further, the “Surviving cells R7 cells (% untreated cells)” value in assay [1] is 2.8 ± 0.7 % untreated cells. Turning to `COC(=O)CC[C@@H](C)[C@H]1CC[C@H]2[C@@H]3[C@H](O[C@H]4CCCCO4)CC4CC(=O)CC[C@]4(C)[C@H]3C[C@H](OC(=O)c3ccccc3)[C@]12C` (stereo partly drawn) [Compound 63, methyl 3-oxo-12α-benzoyloxy-7α-O-[2′(S)]tetrahydro-pyranyloxycholanate], the Daunorubicin accumulation in assay [2] was 104.7 ± 7.0 % of the accumulation measured in the presence of cyclosporine A. For the same molecule, in assay [1], the “activity compared with cyclosporine A (in words)” value was “activity higher than that of the reference compound cyclosporine A” and the “Surviving cells R7 cells (% untreated cells)” value is recorded as 0.7 ± 0.06 % untreated cells.

As to `COCCC[C@@H](C)[C@H]1CC[C@H]2[C@@H]3[C@H](O[C@H]4CCCCO4)CC4CC(=O)CC[C@]4(C)[C@H]3C[C@H](OC(=O)c3ccccc3)[C@]12C` (stereo partly drawn) [Compound 73, 3-oxo-12α-benzoyloxy-7α-O-[2′(S)]tetrahydro-pyranyloxy-24-methoxycholane], the Daunorubicin accumulation in assay [2] is 63.5 ± 5.5 % of the accumulation measured in the presence of cyclosporine A. As for `COC(=O)CC[C@@H](C)[C@H]1CC[C@H]2[C@@H]3[C@H](OC(=O)c4ccccc4)CC4CC(=O)CC[C@]4(C)[C@H]3C[C@H](OC(=O)c3ccccc3)[C@]12C` (stereo partly drawn) [Compound 57, Methyl 3-oxo-7alpha,12alpha-dibenzoyloxycholanate], the Daunorubicin accumulation in assay [2] was 74 ± 1.0 % of the accumulation measured in the presence of cyclosporine A. Regarding `CC(=O)C1CCC2C3C[C@@H](OC(=O)c4ccccc4)[C@@H]4CC(=O)CCC4(C)C3[C@H](OC3CCCCO3)CC12C` (mixture of isomers) [Compound 218, 6β-Benzoyloxy-11α-O-[2′(R and S)]tetrahydropyranyloxy(5β)pregnan-3,20-dione], the “Surviving cells R7 cells (% untreated cells)” value in assay [1] is reported as 6.2 ± 1.1 % untreated cells. `CC(=O)[C@H]1CC[C@H]2[C@H]3[C@H]([C@H](OC(=O)c4ccccc4)C[C@]12C)[C@@]1(C)CCC(=O)C[C@H]1C[C@H]3OC(=O)c1ccccc1` [Compound 30, 7alpha,11alpha-Di benzoyloxy(5beta)pregnane-3,20-dione]: the Daunorubicin accumulation in assay [2] is on record as 75.39 ± 0.39 % of the accumulation measured in the presence of cyclosporine A. `COC(=O)CC[C@@H](C)[C@H]1CC[C@H]2[C@@H]3[C@H](OC(=O)c4ccccc4)CC4CC(=O)CC[C@]4(C)[C@H]3C[C@H](O[C@H]3CCCCO3)[C@]12C` (stereo partly drawn) [Compound 59, Methyl 3-oxo-7α-benzoyloxy-12α-O-[2′(S)]tetrahydropyranyloxycholanate]: the Daunorubicin accumulation in assay [2] is reported as 85.8 ± 2.6 % of the accumulation measured in the presence of cyclosporine A. Besides, the “Surviving cells R7 cells (% untreated cells)” value in assay [1] was determined as 1.8 ± 0.1 % untreated cells. With `COCCC[C@@H](C)[C@H]1CC[C@H]2[C@@H]3[C@H](O[C@@H]4CCCCO4)CC4CC(=O)CC[C@]4(C)[C@H]3C[C@H](OC(=O)c3ccccc3)[C@]12C` (stereo partly drawn) [Compound 74, 3-oxo-12α-benzoyloxy-7α-O-[2′(R)]tetrahydropyranyloxy-24-methoxycholane], the Daunorubicin accumulation in assay [2] is given as 68.0 ± 15.0 % of the accumulation measured in the presence of cyclosporine A.

For the molecule `COC(=O)CC[C@@H](C)[C@H]1CC[C@H]2[C@@H]3[C@H](O[C@@H]4CCCCO4)CC4CC(=O)CC[C@]4(C)[C@H]3C[C@H](OC(=O)c3ccccc3)[C@]12C` (stereo partly drawn) [Compound 64, methyl 3-oxo-12α-benzoyloxy-7α-O-[2′(R)]tetra-hydropyranyloxycholanate], in assay [2], the Daunorubicin accumulation is 10.0 ± 1.5 % of the accumulation measured in the presence of cyclosporine A. Moreover, in assay [1], the “activity compared with cyclosporine A (in words)” value is “activity higher than that of the reference compound cyclosporine A” and the “Surviving cells R7 cells (% untreated cells)” value is 0.8 ± 0.06 % untreated cells. With `CC(=O)C1CCC2C3C(CC[C@]12C)[C@@]1(C)CCC(=O)C=C1C[C@@H]3OC1CCCCO1` (stereo partly drawn) [Compound 3, 7beta-O-[2′(R+S)]Tetrahydropyranyloxypregn-4-ene-3,20-dione], the Daunorubicin accumulation in assay [2] was 108.78 ± 4.27 % of the accumulation measured in the presence of cyclosporine A. With `CC(=O)C1CCC2C3C([C@H](OC4CCCCO4)C[C@]12C)[C@@]1(C)CCC(=O)C[C@H]1C[C@@H]3OC(=O)c1ccccc1` (stereo partly drawn) [Compound 40, 7β-Benzoyloxy-11α-O-[2′(R)]tetrahydropyranyloxy(5β) pregnane-3,20-dione], the Daunorubicin accumulation in assay [2] is 89.5 ± 0.5 % of the accumulation measured in the presence of cyclosporine A. The same measure, in the same setting: the result for `CC(=O)C1CCC2C3CC[C@@H]4CC(=O)CC[C@]4(C)C3[C@H](OC3CCCCO3)C[C@]12C` (stereo partly drawn) [Compound 7, 11α-O-[2′(R)]Tetrahydropyranyloxy(5β)pregnane-3,20-dione] reads 103.0 ± 1.86 % of the accumulation measured in the presence of cyclosporine A; that for `CC(=O)C1CCC2C3C([C@H](OC4CCCCO4)C[C@]12C)[C@@]1(C)CCC(=O)C[C@H]1C[C@@H]3OC(=O)c1ccccc1` (stereo partly drawn) [Compound 39, 7β-Benzoyloxy-11α-O-[2′(S)]tetrahydropyranyloxy(5β)pregnane-3,20-dione], 109.0 ± 1.0 % of the accumulation measured in the presence of cyclosporine A; that for `CC(=O)[C@@]1(OC2CCCCO2)CCC2C3CCC4=CC(=O)CC[C@]4(C)C3CC[C@@]21C` (stereo partly drawn) [Compound 11, 17alpha-O-[2′(R)]Tetrahydropyranyloxypregn-4-ene-3,20-dione], 108.08 ± 6.28 % of the accumulation measured in the presence of cyclosporine A.

Take `CC(=O)[C@@]1(O[C@H]2CCCCO2)CC[C@H]2[C@@H]3CC[C@@H]4CC(=O)CC[C@]4(C)[C@H]3[C@H](O[C@H]3CCCCO3)C[C@@]21C` [Compound 53, 11α,17α-Bis-O-[2′(S),2′(S)]Tetrahydropyranyloxy(5β)pregnane-3,20-dione]: in assay [2], the “accumulation of daunorubicin compared in words with cyclosporine A or progesterone” value was “equivalent to that observed with cyclosporine A” and the Daunorubicin accumulation is 107.0 ± 5.0 % of the accumulation measured in the presence of cyclosporine A. As to `CC(=O)C1CCC2C3C([C@H](OC4CCCCO4)C[C@]12C)[C@@]1(C)CCC(=O)C[C@H]1C[C@H]3OC(=O)c1ccccc1` (stereo partly drawn) [Compound 32, 7α-Benzoyloxy-11α-O-[2′(S)]tetrahydropyranyloxy (5β)pregnane-3,20-dione], in assay [2], the Daunorubicin accumulation is listed as 103.88 ± 4.53 % of the accumulation measured in the presence of cyclosporine A. On to `COCCC[C@@H](C)[C@H]1CC[C@H]2[C@@H]3[C@H](OC(=O)c4ccccc4)CC4CC(=O)CC[C@]4(C)[C@H]3C[C@H](OC(=O)c3ccccc3)[C@]12C` (stereo partly drawn) [Compound 71, 3-oxo-7α,12α-dibenzoyloxy-24-methoxycholane], for which the Daunorubicin accumulation in assay [2] was 50.50 ± 7.5 % of the accumulation measured in the presence of cyclosporine A. Take `CC(=O)[C@H]1CC[C@H]2[C@H]3[C@H]([C@H](OC(=O)c4ccccc4)C[C@]12C)[C@@]1(C)CCC(=O)C[C@H]1C[C@@H]3OC(=O)c1ccccc1` [Compound 41, 7β,11α-Dibenzoyloxy(5β)pregnane-3,20-dione]: the Daunorubicin accumulation in assay [2] is listed as 73.3 ± 0.5 % of the accumulation measured in the presence of cyclosporine A.
